For experiment [1], the system named is EA.hy 926. The experiment is described as follows: Antiproliferative activity against human EAhy926 cells assessed as reduction in cell viability after 24 hrs by CCK-8 assay. Conditions: EA.hy 926, 24 h. A general note: Tetrazolium assays rely on reduction of a dye to a coloured formazan, in cell work by metabolically active cells.
The test system of experiment [2] is MCF7. As to the kind of experiment: Antiproliferative activity against human MCF7 cells after 48 hrs by MTT assay. Conditions: MCF7, 48 h.
The subject of experiment [3] is HeLa. As to the kind of experiment: Antiproliferative activity against human HeLa cells after 48 hrs by MTT assay.
Experiment [4] has as its system LoVo. The experiment is described as follows: Antiproliferative activity against human LoVo cells after 48 hrs by MTT assay.
Experiment [5] deals with Angiopoietin-1 receptor (Homo sapiens, UniProt Q02763). The experiment is described as follows: Inhibition of Tie-2 (unknown origin) after 1 hrs by ADP-Glo luminescence assay. A general note: ADP-Glo first removes unused ATP, then detects ADP through luciferase.
Experiment [6] has as its system A-431. As to the kind of experiment: Antiproliferative activity against human A431 cells after 48 hrs by MTT assay. Conditions: A-431, 48 h.
In experiment [7] the test system is A549. As to the kind of experiment: Antiproliferative activity against human A549 cells after 48 hrs by MTT assay. Conditions: A549, 48 h.
In experiment [8] the target is Vascular endothelial growth factor receptor 2 (Homo sapiens, UniProt P35968). The experiment is described as follows: Inhibition of VEGFR-2 (unknown origin) after 1 hrs by ADP-Glo luminescence assay.
Experiment [9] deals with T1, Ephrin type-B receptor 4 (Homo sapiens, UniProt P54760).
T1 sequence (P54760 whole entry): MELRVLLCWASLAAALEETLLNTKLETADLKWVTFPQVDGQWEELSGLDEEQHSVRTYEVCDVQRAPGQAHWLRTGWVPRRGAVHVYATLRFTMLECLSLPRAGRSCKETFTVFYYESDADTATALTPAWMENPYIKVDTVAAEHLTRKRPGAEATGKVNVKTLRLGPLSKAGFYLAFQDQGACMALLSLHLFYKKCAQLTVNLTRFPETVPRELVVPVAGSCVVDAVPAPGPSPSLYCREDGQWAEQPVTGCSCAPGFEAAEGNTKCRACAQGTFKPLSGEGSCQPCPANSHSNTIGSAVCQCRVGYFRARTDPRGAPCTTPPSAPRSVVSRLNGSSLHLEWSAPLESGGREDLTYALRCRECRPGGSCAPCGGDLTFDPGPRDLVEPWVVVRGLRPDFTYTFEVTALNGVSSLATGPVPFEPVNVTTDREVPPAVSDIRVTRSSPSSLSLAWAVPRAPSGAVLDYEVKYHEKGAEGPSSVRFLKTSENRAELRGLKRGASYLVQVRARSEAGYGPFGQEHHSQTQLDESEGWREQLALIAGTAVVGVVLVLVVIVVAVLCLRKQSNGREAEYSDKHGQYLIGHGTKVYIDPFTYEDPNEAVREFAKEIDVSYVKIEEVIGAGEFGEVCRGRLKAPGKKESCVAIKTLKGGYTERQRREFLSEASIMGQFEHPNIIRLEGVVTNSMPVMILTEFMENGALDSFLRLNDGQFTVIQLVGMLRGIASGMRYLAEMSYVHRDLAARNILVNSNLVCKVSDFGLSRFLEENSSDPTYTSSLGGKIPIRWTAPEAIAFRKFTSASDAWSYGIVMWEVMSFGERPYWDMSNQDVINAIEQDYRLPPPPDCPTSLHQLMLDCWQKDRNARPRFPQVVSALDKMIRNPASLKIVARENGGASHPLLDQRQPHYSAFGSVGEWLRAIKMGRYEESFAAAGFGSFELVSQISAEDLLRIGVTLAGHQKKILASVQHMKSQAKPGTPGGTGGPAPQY
The experiment is described as follows: Inhibition of EphB4 (unknown origin) after 1 hrs by ADP-Glo luminescence assay.

A word on the IC50: it is the concentration needed to halve the response being measured.

Chain of Angiopoietin-1 receptor (Q02763 whole entry): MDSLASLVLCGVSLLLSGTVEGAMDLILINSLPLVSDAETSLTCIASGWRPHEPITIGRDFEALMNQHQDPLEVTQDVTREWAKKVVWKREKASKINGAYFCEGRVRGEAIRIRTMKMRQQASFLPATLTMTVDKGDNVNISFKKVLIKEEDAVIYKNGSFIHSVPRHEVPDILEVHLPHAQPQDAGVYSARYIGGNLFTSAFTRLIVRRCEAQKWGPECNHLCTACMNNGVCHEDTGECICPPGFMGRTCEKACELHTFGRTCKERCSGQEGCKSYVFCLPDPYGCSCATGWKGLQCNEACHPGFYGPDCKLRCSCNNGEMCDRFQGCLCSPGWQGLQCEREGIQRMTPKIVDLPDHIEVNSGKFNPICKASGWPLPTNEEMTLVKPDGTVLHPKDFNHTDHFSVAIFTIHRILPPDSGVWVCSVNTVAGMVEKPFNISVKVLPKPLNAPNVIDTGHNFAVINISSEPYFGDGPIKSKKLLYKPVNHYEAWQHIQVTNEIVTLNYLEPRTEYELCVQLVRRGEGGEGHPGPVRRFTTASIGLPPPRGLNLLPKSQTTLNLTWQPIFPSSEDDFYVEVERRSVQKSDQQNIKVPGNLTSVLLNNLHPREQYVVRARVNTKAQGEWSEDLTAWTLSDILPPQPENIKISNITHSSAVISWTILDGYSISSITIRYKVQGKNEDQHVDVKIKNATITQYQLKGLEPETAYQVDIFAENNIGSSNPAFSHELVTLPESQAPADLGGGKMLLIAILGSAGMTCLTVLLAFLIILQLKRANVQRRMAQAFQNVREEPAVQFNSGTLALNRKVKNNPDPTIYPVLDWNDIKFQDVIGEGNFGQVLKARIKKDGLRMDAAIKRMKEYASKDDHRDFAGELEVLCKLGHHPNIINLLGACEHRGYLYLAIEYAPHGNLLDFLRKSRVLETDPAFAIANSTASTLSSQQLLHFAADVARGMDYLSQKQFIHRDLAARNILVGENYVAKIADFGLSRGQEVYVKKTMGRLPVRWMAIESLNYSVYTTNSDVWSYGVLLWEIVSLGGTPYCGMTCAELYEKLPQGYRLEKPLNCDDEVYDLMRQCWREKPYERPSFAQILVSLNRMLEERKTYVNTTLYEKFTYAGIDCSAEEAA
Chain of Vascular endothelial growth factor receptor 2 (P35968 whole entry): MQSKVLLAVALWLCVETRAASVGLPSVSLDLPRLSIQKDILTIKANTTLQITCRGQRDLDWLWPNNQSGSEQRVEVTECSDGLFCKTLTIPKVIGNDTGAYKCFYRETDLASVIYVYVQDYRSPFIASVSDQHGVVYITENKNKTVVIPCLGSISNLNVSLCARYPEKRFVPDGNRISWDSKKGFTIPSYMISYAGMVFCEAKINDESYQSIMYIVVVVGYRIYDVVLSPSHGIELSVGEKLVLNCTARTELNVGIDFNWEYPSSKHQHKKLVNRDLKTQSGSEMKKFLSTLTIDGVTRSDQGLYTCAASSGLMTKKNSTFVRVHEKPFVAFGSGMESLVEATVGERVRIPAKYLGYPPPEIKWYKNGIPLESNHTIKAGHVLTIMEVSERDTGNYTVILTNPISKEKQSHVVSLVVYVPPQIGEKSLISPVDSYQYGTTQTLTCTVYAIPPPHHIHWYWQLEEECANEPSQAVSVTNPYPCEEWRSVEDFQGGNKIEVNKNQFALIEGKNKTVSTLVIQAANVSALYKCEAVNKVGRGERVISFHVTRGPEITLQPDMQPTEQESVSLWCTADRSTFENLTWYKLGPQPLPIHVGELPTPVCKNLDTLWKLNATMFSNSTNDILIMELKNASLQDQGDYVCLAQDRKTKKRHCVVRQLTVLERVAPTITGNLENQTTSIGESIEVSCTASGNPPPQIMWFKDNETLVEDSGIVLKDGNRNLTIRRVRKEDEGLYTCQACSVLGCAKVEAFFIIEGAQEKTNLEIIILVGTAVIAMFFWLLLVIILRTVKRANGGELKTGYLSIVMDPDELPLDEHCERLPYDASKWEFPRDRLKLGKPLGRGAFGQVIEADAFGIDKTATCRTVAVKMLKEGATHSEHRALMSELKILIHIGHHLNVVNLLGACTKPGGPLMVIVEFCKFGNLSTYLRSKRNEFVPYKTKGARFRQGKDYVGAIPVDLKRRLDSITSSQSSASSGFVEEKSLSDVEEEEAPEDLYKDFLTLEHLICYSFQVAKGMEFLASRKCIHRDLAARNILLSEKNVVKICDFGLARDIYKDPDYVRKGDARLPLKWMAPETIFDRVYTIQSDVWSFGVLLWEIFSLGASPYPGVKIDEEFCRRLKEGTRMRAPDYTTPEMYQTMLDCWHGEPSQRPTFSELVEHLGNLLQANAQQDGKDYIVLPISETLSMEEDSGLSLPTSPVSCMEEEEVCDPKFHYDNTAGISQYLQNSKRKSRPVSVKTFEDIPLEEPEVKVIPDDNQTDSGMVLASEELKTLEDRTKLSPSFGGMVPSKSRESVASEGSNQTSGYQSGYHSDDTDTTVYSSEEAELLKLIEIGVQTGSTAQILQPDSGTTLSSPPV

As for `Cn1cc(-c2ccc(Cn3cc(-c4ccccc4F)nn3)cc2)cn1`, the IC50 in experiment [1] was determined as 1.9 µM; in experiment [2], 15.6 µM; in experiment [3] it was 27.8 µM; in experiment [4], 1.32 µM; in experiment [5] it was 0.00269 µM; in experiment [6], 7.29 µM. For the same compound, inhibition in [7] was half-maximal at 1.2 µM (IC50).

For the compound `Fc1ccccc1-c1cn(Cc2ccc(-c3cn[nH]c3)cc2)nn1`, the IC50 in experiment [1] amounted to 19.9 µM; in experiment [5], 0.00546 µM.

On to `FC(F)(F)c1ccc(-c2cn(Cc3ccc(-c4cn[nH]c4)cc3)nn2)cc1`, for which the IC50 in experiment [1] is 20.9 µM; in [8], more than 1 µM; in experiment [5], more than 1 µM.

For the compound `Cc1ccc(-c2cn(Cc3ccc(-c4cncnc4)cc3)nn2)cc1`, the IC50 in experiment [1] was 1.01 µM; in experiment [5] it was 0.0257 µM.

For `Nc1cccc(-c2cn(Cc3ccc(-c4cncnc4)cc3)nn2)c1`, the IC50 in [1] is 30.2 µM; in experiment [9], more than 1 µM; in experiment [5], 0.21 µM.

Take `Fc1ccccc1-c1cn(Cc2ccc(-c3cncnc3)cc2)nn1`: the IC50 was 22.5 µM in experiment [1] and 0.00545 µM in [5].

Turning to `Cn1cc(-c2ccc(Cn3cc(-c4cccc(NC(=O)C5CC5)c4)nn3)cc2)cn1`, the IC50 in experiment [1] is 484 µM; in [9], more than 1 µM; in experiment [5], 0.00082 µM.

On to `Cc1cccc(-c2cn(Cc3ccc(-c4cn[nH]c4)cc3)nn2)c1`, for which the concentration for half-maximal inhibition (IC50) in [1] is 134 µM; in experiment [9], more than 1 µM; in experiment [5] it was 0.0464 µM.

In the case of `Cn1cc(-c2ccc(Cn3cc(-c4cccc(C(F)(F)F)c4)nn3)cc2)cn1`, the IC50 in experiment [1] amounted to 69 µM; in experiment [5], 0.00179 µM.

Regarding `CNC(=O)c1cc(Oc2ccc(NC(=O)Nc3ccc(Cl)c(C(F)(F)F)c3)cc2)ccn1` [SORAFENIB], the IC50 in [2] was 3.47 µM; in experiment [3] it was 8.74 µM; in experiment [4], 2.52 µM; in experiment [6], 3.32 µM; in experiment [7], 3.88 µM.

In the case of `O=C(Nc1cccc(-c2cn(Cc3ccc(-c4cncnc4)cc3)nn2)c1)C1CC1`, the IC50 in experiment [1] is 17.3 µM; in [9] it was more than 1 µM; in experiment [5], more than 1 µM.

With `Cn1cc(-c2ccc(Cn3cc(-c4ccccc4)nn3)cc2)cn1`, the IC50 is 62.2 µM in experiment [1] and more than 1 µM in [5].

For the compound `Nc1cccc(-c2cn(Cc3ccc(-c4cn[nH]c4)cc3)nn2)c1`, the IC50 was 251 µM in experiment [1], more than 1 µM in experiment [8], more than 1 µM in [9] and more than 1 µM in experiment [5].

`FC(F)(F)c1ccc(-c2cn(Cc3ccc(-c4cncnc4)cc3)nn2)cc1`: the IC50 in experiment [1] was 46.8 µM; in experiment [9], more than 1 µM; in experiment [5], more than 1 µM.

For `c1ccc(-c2cn(Cc3ccc(-c4cncnc4)cc3)nn2)cc1`, the values for the IC50 in experiment [1], in experiment [8] and in experiment [5] were 35.5 µM, more than 1 µM and 0.0519 µM, respectively.

Take `Cn1cc(-c2ccc(Cn3cc(-c4ccc(C(F)(F)F)cc4)nn3)cc2)cn1`: the IC50 in [8] is more than 1 µM; in experiment [5], 0.00911 µM.

Take `Cc1ccc(-c2cn(Cc3ccc(-c4cnn(C)c4)cc3)nn2)cc1`: the IC50 in experiment [1] was 38.1 µM; in [5] it was 0.0774 µM.

As to `Cc1cccc(-c2cn(Cc3ccc(-c4cncnc4)cc3)nn2)c1`, the IC50 in [1] worked out at 142 µM; in experiment [5] it was 0.0137 µM.

Take `Cn1cc(-c2ccc(Cn3cc(-c4cccc(N)c4)nn3)cc2)cn1`: the IC50 in experiment [1] was 22 µM; in experiment [9] it was more than 1 µM; in [5] it was more than 1 µM.

For `Cc1cccc(-c2cn(Cc3ccc(-c4cnn(C)c4)cc3)nn2)c1`, the IC50 in experiment [1] was 1.11 µM; in [8], more than 1 µM; in [5] it was 0.0514 µM.

For `Clc1cccc(-c2cn(Cc3ccc(-c4cncnc4)cc3)nn2)c1`, the figures for the IC50 in experiment [1] and in experiment [9] were 7.83 µM and more than 1 µM, respectively.
